Patent publication US20050090517A1, “Pharmaceutical combinations of cox-2 inhibitors and opiates” (priority 2002, published 2005)
Where two headings read alike, the source gives them in different places.

Key:
[1] = tested on: noxious ischaemia to the tail of Sprague-Dawley rats; test: Nociception during noxious ischaemia of the rat tail (tourniquet, escape latency); format: in vivo; conditions: median (95% confidence interval), n=10, cut-off 30 min
Protocol: Sprague-Dawley rats (Rattus norvegicus) both genders weighing 250-450 g were used for nociceptive tests. The rats were housed individually at an ambient temperature of 21-23° C. on a 12-hour light; 12-hour dark cycle, and were allowed free access to standard rat chow and tap water. Groups of ten rats were used for each test. Rats were returned to stock, and in good health, after the tests.
Ischaemia was induced by applying an inflatable tourniquet to the base of the restrained rat's tail, as detailed previously (Gelgor et al., 1992). […] The time between application of the tourniquet and the escape response, that is the escape latency, is a measure of sensitivity to the noxious stimulus induced by ischaemia. To prevent tissue damage, the tourniquet was removed if the rat had not responded within 30 min.
(§1) The tail flick latency (mean of three measurements, 1 min apart) was measured and then the agent under test was administered. Thirty minutes later the tourniquet (or sham tourniquet) was applied and the escape latency measured. Immediately after release of the tourniquet, the tail flick latency was again measured, and the measurements were repeated after 30 and 60 min of reperfusion. Following inspection of the data at all three periods of reperfusion, the investigations elected to base their assessment of antihyperalgesic activity on data obtained immediately after release of the tourniquet.
Paracetamol, meloxicam and codeine phosphate were provided by the applicant. Codeine phosphate was dissolved in water. Meloxicam was dissolved in sunflower oil. Paracetamol was suspended in sunflower oil. All three agents were administered in boluses of 0.2 ml, and the paracetamol suspension was flushed with water. In control experiments, the appropriate vehicle (water, sunflower oil, or both) was administered.
Each agent was administered separately, at three doses, to determine the antinociceptve activity, if any, of each independently. Pairs of agents then were administered at three doses for each pair. Finally, the combination of the three agents was administered, at three doses. […]

[2] = tested on: reperfusion hyperalgesia of the tail of Sprague-Dawley rats; test: Reperfusion hyperalgesia of the rat tail following transient ischaemia (tail flick latency, antihyperalgesic index); format: in vivo; conditions: for ED50: Rattus norvegicus, read-out: ED50 (dose at which reperfusion hyperalgesia is reduced by 50%), agent separately
Protocol: Sprague-Dawley rats (Rattus norvegicus) both genders weighing 250-450 g were used for nociceptive tests. The rats were housed individually at an ambient temperature of 21-23° C. on a 12-hour light; 12-hour dark cycle, and were allowed free access to standard rat chow and tap water. Groups of ten rats were used for each test.
The response of the rats to a noxious thermal stimulus was measured using a modified tail flick test, the details of which have previously been described (Gelgor et al., 1992). The rat's tail was submerged in a water bath controlled at 49° C., and the time to the first coordinated motor response of the tail measured, with a safety cut-off at 30 s. Tail skin temperature was maintained at 29° C. by placing all but the proximal 20 mm of the rat's tail in a temperature-controlled bath, before and between measurements, to obviate the potential confounding effects of changes in tail temperature on tail flick latency (Tjolsen et al., 1989).
The hyperalgesia which occurs during reperfusion of the tail following transient ischaemia, that is following the release of the tourniquet mentioned above, was measured by comparing the tail flick latency during reperfusion with that measured in the same animal before application of the tourniquet. Hyperalgesia is manifest as a reduced tail flick latency during reperfusion, and lasts about one hour (Gelgor et al., 1992).
as §1
Codeine phosphate was dissolved in water. Meloxicam was dissolved in sunflower oil. Paracetamol was suspended in sunflower oil. All three agents were administered in boluses of 0.2 ml, and the paracetamol suspension was flushed with water. In control experiments, the appropriate vehicle (water, sunflower oil, or both) was administered.
Each agent was administered separately, at three doses, to determine the antinociceptve activity, if any, of each independently. Pairs of agents then were administered at three doses for each pair. Finally, the combination of the three agents was administered, at three doses. In all cases, the ratio of the agents was fixed at 1 meloxicam: 4 codeine: 266 paracetamol.
Antihyperalgesia is measured by the extent to which an agent reverses the hyperalgesia induced by conditioning event, which, in the test case, was transient ischaemia. An antihyperalgesic index of zero means complete lack of antihyperalgesic activity, an index of 100% means full reversal of the hyperalgesia, and an index of more than 100% implies some analgesic activity added to the antihyperalgesic activity.

[3] = oral, single agent, least-squares regression, n=9 or 10, immediately after release of tourniquet

| Compound | Escape latency (min), Agent ([1]; codeine 20 mg/kg oral 30 min earlier) | ED50 ([2]; po) [mg/kg] | Escape latency (min), Agent ([1]; meloxicam 5 mg/kg oral 30 min earlier) | ED50 [2, 3] [mg/kg] | Escape latency (min), Agent ([1]; paracetamol 266 mg/kg oral 30 min earlier) | Antihyperalgesic activity of each agent administered separately, in words ([2]; oral, three doses each (FIG. 2), paracetamol limited to 266 mg/kg) | Antihyperalgesic activity of the agent on its own at its dose in the ED50 of the triple combination, in words ([2]; rat, in vivo) |
| --- | --- | --- | --- | --- | --- | --- | --- |
| COc1ccc2c3c1O[C@H]1[C@@H](O)C=C[C@H]4[C@@H](C2)N(C)CC[C@@]341 [Codeine, codeine phosphate] | 20.9 (11.9-30.0) min | 2.4 |  |  |  |  |  |
| Cc1cnc(NC(=O)C2=C(O)c3ccccc3S(=O)(=O)N2C)s1 [Meloxicam, meloxicam] |  |  | 25.3 (15.7-30.0) min | 2.6 |  |  |  |
| CC(=O)Nc1ccc(O)cc1 [Paracetamol, paracetamol] |  |  |  | > 266 | 18.2 (9.2-30.0) min | did not exhibit any antihyperalgesic activity | no antihyperalgesic activity |
